Experimental findings from US20050197350A1, “Novel quinoline, tetrahydroquinazoline, and pyrimidine derivatives and methods of treatment related to the use thereof” (TAISHO PHARMACEUTICAL CO., LTD., priority 2003, published 2005) are described below.

The experiment relates to MCH receptors. Kind of experiment: MCH receptor activity class (method not given). The conditions noted are these: class 1-3 by percent of control at 10^-7 M or IC50.

`CN(C)c1nc(N[C@H]2CC[C@@H](NC(=O)c3csc4ccccc34)CC2)nc2c1CCCC2` [compound 527]: the class was 3 (Class 3 The value of percent of control at 10^−7 M was more than 60% or the value of IC50 was more than 200 nM.).

`CN(C)c1nc(N[C@H]2CC[C@@H](NC(=O)c3ccccc3)CC2)nc2c1CCCC2` [compound 529, N-(cis-4-{[4-(dimethylamino)-5,6,7,8-tetrahydroquinazolin-2-yl]amino}cyclohexyl)benzamide]: the class was 2 (Class 2: The value of percent of control at 10^−7 M was from 40% to 60% or the value of IC′50 was from 50 nM to 200 nM.).

Consider `CN(C)c1nc(N[C@H]2CC[C@@H](NC(=O)c3cc4ccccc4s3)CC2)nc2c1CCCC2` [compound 530], for which the class is 3 (Class 3 The value of percent of control at 10^−7 M was more than 60% or the value of IC50 was more than 200 nM.).

For the molecule `CN(C)c1nc(N[C@H]2CC[C@@H](NC(=O)COCc3ccccc3)CC2)nc2c1CCCC2` [compound 531, 2-(benzyloxy)-N-(cis-4-{[4-(dimethylamino)-5,6,7,8-tetrahydroquinazolin-2-yl]amino}cyclohexyl)acetamide], the class is 2 (Class 2: The value of percent of control at 10^−7 M was from 40% to 60% or the value of IC′50 was from 50 nM to 200 nM.).

In the case of `CN(C)c1nc(N[C@H]2CC[C@@H](NC(=O)COc3ccc(Cl)cc3)CC2)nc2c1CCCC2` [compound 532], the class is 2 (Class 2: The value of percent of control at 10^−7 M was from 40% to 60% or the value of IC′50 was from 50 nM to 200 nM.).

With `CN(C)c1nc(N[C@H]2CC[C@@H](NC(=O)C3CCCCC3)CC2)nc2c1CCCC2` [compound 533], the class is 3 (Class 3 The value of percent of control at 10^−7 M was more than 60% or the value of IC50 was more than 200 nM.).

With `Cc1onc(-c2ccccc2Cl)c1C(=O)N[C@H]1CC[C@@H](Nc2nc3c(c(N(C)C)n2)CCCC3)CC1` [compound 534], the class is 2 (Class 2: The value of percent of control at 10^−7 M was from 40% to 60% or the value of IC′50 was from 50 nM to 200 nM.).

For `CN(C)c1nc(N[C@H]2CC[C@@H](NC(=O)C3(c4ccc(Cl)cc4)CCCC3)CC2)nc2c1CCCC2` [compound 535], the class is reported as 2 (Class 2: The value of percent of control at 10^−7 M was from 40% to 60% or the value of IC′50 was from 50 nM to 200 nM.).

Turning to `Cc1onc(-c2c(F)cccc2Cl)c1C(=O)N[C@H]1CC[C@@H](Nc2nc3c(c(N(C)C)n2)CCCC3)CC1` [compound 536, 3-(2-chloro-6-fluorophenyl)-N-(cis-4-{[4-(dimethylamino)-5,6,7,8-tetrahydroquinazolin-2-yl]amino}cyclohexyl)-5-methylisoxazole-4-carboxamide], the class is 1 (Class 1: The value of percent of control at 10^−7 M was less than 40% or the value of IC50 was less than 50 nM.).

In the case of `CC(C)S(=O)(=O)c1csc(C(=O)N[C@H]2CC[C@@H](Nc3nc4c(c(N(C)C)n3)CCCC4)CC2)c1Cl` [compound 537], the class is reported as 3 (Class 3 The value of percent of control at 10^−7 M was more than 60% or the value of IC50 was more than 200 nM.).

For the molecule `CN(C)c1nc(N[C@H]2CC[C@@H](NC(=O)c3ccc([N+](=O)[O-])cc3Cl)CC2)nc2c1CCCC2` [compound 538], the class is 3 (Class 3 The value of percent of control at 10^−7 M was more than 60% or the value of IC50 was more than 200 nM.).

Take `Cc1cc(C(=O)N[C@H]2CC[C@@H](Nc3nc4c(c(N(C)C)n3)CCCC4)CC2)n(C)n1` [compound 539]: the class is 2 (Class 2: The value of percent of control at 10^−7 M was from 40% to 60% or the value of IC′50 was from 50 nM to 200 nM.).

On to `COc1ccc(C(=O)N[C@H]2CC[C@@H](Nc3nc4c(c(N(C)C)n3)CCCC4)CC2)cc1OC` [compound 540], for which the class is reported as 3 (Class 3 The value of percent of control at 10^−7 M was more than 60% or the value of IC50 was more than 200 nM.).

For `CN(C)c1nc(N[C@H]2CC[C@@H](NC(=O)c3cccc(F)c3)CC2)nc2c1CCCC2` [compound 541], the class is on record as 1 (Class 1: The value of percent of control at 10^−7 M was less than 40% or the value of IC50 was less than 50 nM.).

As to `CN(C)c1nc(N[C@H]2CC[C@@H](NC(=O)c3ccc(F)c(C(F)(F)F)c3)CC2)nc2c1CCCC2` [compound 542], the class is given as 1 (Class 1: The value of percent of control at 10^−7 M was less than 40% or the value of IC50 was less than 50 nM.).

As to `Cc1nn(-c2ccccc2)nc1C(=O)N[C@H]1CC[C@@H](Nc2nc3c(c(N(C)C)n2)CCCC3)CC1` [compound 543], the class is listed as 2 (Class 2: The value of percent of control at 10^−7 M was from 40% to 60% or the value of IC′50 was from 50 nM to 200 nM.).

With `COc1ccc(Oc2ccc([N+](=O)[O-])cc2C(=O)N[C@H]2CC[C@@H](Nc3nc4c(c(N(C)C)n3)CCCC4)CC2)cc1` [compound 544], the class is listed as 1 (Class 1: The value of percent of control at 10^−7 M was less than 40% or the value of IC50 was less than 50 nM.).

With `CN(C)c1nc(N[C@H]2CC[C@@H](NC(=O)c3cccc4ccccc34)CC2)nc2c1CCCC2` [compound 545], the class was 3 (Class 3 The value of percent of control at 10^−7 M was more than 60% or the value of IC50 was more than 200 nM.).

On to `CN(C)c1nc(N[C@H]2CC[C@@H](NC(=O)c3ccc4ccccc4c3)CC2)nc2c1CCCC2` [compound 546], for which the class is 3 (Class 3 The value of percent of control at 10^−7 M was more than 60% or the value of IC50 was more than 200 nM.).

With `CN(C)c1nc(N[C@H]2CC[C@@H](NC(=O)c3ccc([N+](=O)[O-])o3)CC2)nc2c1CCCC2` [compound 547], the class is 1 (Class 1: The value of percent of control at 10^−7 M was less than 40% or the value of IC50 was less than 50 nM.).

Consider `CN(C)c1nc(N[C@H]2CC[C@@H](NC(=O)COc3ccccc3)CC2)nc2c1CCCC2` [compound 548], for which the class is recorded as 1 (Class 1: The value of percent of control at 10^−7 M was less than 40% or the value of IC50 was less than 50 nM.).

With `CN(C)c1nc(N[C@H]2CC[C@@H](NC(=O)COc3ccccc3[N+](=O)[O-])CC2)nc2c1CCCC2` [compound 549], the class was 3 (Class 3 The value of percent of control at 10^−7 M was more than 60% or the value of IC50 was more than 200 nM.).

On to `CN(C)c1nc(N[C@H]2CC[C@@H](NC(=O)c3cnc4ccccc4n3)CC2)nc2c1CCCC2` [compound 550], for which the class was 1 (Class 1: The value of percent of control at 10^−7 M was less than 40% or the value of IC50 was less than 50 nM.).

As for `COc1cc(C(=O)N[C@H]2CC[C@@H](Nc3nc4c(c(N(C)C)n3)CCCC4)CC2)cc(OC)c1OC` [compound 551], the class is 3 (Class 3 The value of percent of control at 10^−7 M was more than 60% or the value of IC50 was more than 200 nM.).

Regarding `CN(C)c1nc(N[C@H]2CC[C@@H](NC(=O)c3cccc(C(F)(F)F)c3)CC2)nc2c1CCCC2` [compound 552], the class is reported as 1 (Class 1: The value of percent of control at 10^−7 M was less than 40% or the value of IC50 was less than 50 nM.).

On to `CN(C)c1nc(N[C@H]2CC[C@@H](NC(=O)c3ccc(C(F)(F)F)cc3)CC2)nc2c1CCCC2` [compound 553], for which the class is listed as 3 (Class 3 The value of percent of control at 10^−7 M was more than 60% or the value of IC50 was more than 200 nM.).

For `CN(C)c1nc(N[C@H]2CC[C@@H](NC(=O)c3ccccc3OC(F)(F)F)CC2)nc2c1CCCC2` [compound 554], the class is on record as 3 (Class 3 The value of percent of control at 10^−7 M was more than 60% or the value of IC50 was more than 200 nM.).
